pIC50: −log10 of the molar value. Values belong to the compound of their own block, whether it stands above or below them.
How the values were obtained:
[1] = Half life in Sprague-Dawley rat at 5 to 10 mg/kg, po administered as cassette dose measured upto 24 hrs by LC-MS analysis; type: ADME, organism-based; details: in vivo, dose 5-10 mg/kg
[2] = molecular target: T1, Tyrosine-protein kinase BTK (Homo sapiens, UniProt Q06187); test: Induction of BTK degradation in human MINO cells incubated for 24 hrs by Western blot; type: cell-based; details: dose 1-1000 nM, DDE = dose-dependent effect
T1 sequence (Q06187 whole entry): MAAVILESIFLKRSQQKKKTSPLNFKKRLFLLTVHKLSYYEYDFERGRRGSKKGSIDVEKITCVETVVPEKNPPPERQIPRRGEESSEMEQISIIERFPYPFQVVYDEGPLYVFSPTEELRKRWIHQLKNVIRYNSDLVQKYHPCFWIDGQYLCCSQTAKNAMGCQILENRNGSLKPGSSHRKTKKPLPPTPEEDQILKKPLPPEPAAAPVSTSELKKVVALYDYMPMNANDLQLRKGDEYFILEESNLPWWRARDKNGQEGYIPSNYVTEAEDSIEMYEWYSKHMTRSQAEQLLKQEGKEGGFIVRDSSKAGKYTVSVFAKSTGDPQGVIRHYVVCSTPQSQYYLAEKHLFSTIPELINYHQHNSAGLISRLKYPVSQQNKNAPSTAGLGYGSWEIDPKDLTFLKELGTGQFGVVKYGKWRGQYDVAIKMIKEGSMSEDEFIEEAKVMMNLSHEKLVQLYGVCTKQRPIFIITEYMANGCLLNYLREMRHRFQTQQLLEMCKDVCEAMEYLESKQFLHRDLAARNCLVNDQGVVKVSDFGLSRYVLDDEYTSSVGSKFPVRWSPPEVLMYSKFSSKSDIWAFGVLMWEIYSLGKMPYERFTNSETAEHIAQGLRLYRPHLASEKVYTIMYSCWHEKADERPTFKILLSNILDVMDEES

[3] = Tmax in Sprague-Dawley rat at 5 to 10 mg/kg, po administered as cassette dose measured upto 24 hrs by LC-MS analysis; type: ADME, organism-based; details: in vivo, dose 5-10 mg/kg
[4] = molecular target: T1, Tyrosine-protein kinase BTK; test: Inhibition of BTK (unknown origin)
[5] = Cmax in Sprague-Dawley rat at 5 to 10 mg/kg, po administered as cassette dose measured upto 24 hrs by LC-MS analysis; type: ADME, organism-based; parameters: time < 24 hrs, route po; details: in vivo, dose 5-10 mg/kg
[6] = tested on: JeKo-1; test: cells; details: Homo sapiens
[7] = Dose normalized AUC (0 to t) in Sprague-Dawley rat at 5 to 10 mg/kg, po administered as cassette dose measured upto 24 hrs by LC-MS analysis; type: ADME, organism-based; details: in vivo, dose 5-10 mg/kg
[8] = tested on: JeKo-1; test: cells; details: Homo sapiens; remark: listed apart in the source
[9] = AUC (0 to t) in Sprague-Dawley rat at 5 to 10 mg/kg, po administered as cassette dose measured upto 24 hrs by LC-MS analysis; type: ADME, organism-based; parameters: time < 24 hrs, route po; details: in vivo, dose 5-10 mg/kg
[10] = Tmax in ICR mouse at 20 mg/kg, po administered as single dose measured upto 48 hrs by LC-MS analysis; type: ADME, organism-based; details: in vivo
[11] = Half life in ICR mouse at 20 mg/kg, po administered as single dose measured upto 48 hrs by LC-MS analysis; type: ADME, organism-based; details: in vivo
[12] = Cmax in ICR mouse at 20 mg/kg, po administered as single dose measured upto 48 hrs by LC-MS analysis; type: ADME, organism-based; parameters: dose 20 mg/kg, time < 48 hrs, route po; details: in vivo
[13] = tested on: MM1.S; test: cells; details: Homo sapiens
[14] = AUC (0 to infinity) in ICR mouse at 20 mg/kg, po administered as single dose measured upto 48 hrs by LC-MS analysis; type: ADME, organism-based; parameters: dose 20 mg/kg, time < 48 hrs, route po; details: in vivo
[15] = AUC (0 to t) in Sprague-Dawley rat at 10 mg/kg, po administered as cassette dose measured upto 24 hrs by LC-MS analysis; type: ADME, organism-based; parameters: dose 10 mg/kg, time < 24 hrs, route po; details: in vivo
[16] = Tmax in Sprague-Dawley rat at 10 mg/kg, po administered as cassette dose measured upto 24 hrs by LC-MS analysis; type: ADME, organism-based; details: in vivo
[17] = molecular target: Tyrosine-protein kinase BTK (Mus musculus) (UniProt P35991); test: In vivo induction of BTK degradation in ICR mouse monocytes at 20 mg/kg, po after 8 hrs by Western blot analysis relative to control; type: functional, organism-based; details: Monocyte
Chain of Tyrosine-protein kinase BTK (Mus musculus) (P35991 whole entry): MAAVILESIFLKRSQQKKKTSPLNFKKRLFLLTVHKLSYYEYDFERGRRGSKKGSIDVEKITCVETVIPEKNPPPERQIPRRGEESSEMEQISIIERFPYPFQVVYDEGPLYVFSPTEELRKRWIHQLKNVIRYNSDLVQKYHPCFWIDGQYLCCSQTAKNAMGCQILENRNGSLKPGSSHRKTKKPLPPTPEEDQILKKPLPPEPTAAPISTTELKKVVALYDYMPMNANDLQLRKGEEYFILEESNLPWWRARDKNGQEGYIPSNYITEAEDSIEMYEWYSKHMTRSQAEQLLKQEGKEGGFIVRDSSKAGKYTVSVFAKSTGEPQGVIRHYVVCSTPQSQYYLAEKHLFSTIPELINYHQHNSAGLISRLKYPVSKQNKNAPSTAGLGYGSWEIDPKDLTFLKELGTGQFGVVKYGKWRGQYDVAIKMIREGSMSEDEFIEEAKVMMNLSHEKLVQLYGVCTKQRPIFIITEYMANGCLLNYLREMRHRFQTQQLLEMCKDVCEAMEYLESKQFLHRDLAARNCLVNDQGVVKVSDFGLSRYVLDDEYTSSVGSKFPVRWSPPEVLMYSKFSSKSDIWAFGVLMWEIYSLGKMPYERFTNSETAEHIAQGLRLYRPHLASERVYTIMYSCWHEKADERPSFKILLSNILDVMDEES

[18] = Half life in Sprague-Dawley rat at 10 mg/kg, po administered as cassette dose measured upto 24 hrs by LC-MS analysis; type: ADME, organism-based; details: in vivo
[19] = molecular target: T1, Tyrosine-protein kinase BTK; test: Induction of BTK degradation in human MINO cells incubated for 24 hrs by Western blot analysis; type: cell-based; details: dose 1-1000 nM, DDE = dose-dependent effect
[20] = AUC (0 to t) in ICR mouse at 20 mg/kg, po administered as single dose measured upto 48 hrs by LC-MS analysis; type: ADME, organism-based; parameters: dose 20 mg/kg, time < 48 hrs, route po; details: in vivo
[21] = Cmax in Sprague-Dawley rat at 10 mg/kg, po administered as cassette dose measured upto 24 hrs by LC-MS analysis; type: ADME, organism-based; parameters: time < 24 hrs, dose 10 mg/kg, route po; details: in vivo
[22] = Dose normalized AUC (0 to t) in Sprague-Dawley rat at 10 mg/kg, po administered as cassette dose measured upto 24 hrs by LC-MS analysis; type: ADME, organism-based; details: in vivo
[23] = cells; details: Homo sapiens, MINO
[24] = tested on: OCI-Ly10; test: cells; details: Homo sapiens
[25] = tested on: TMD8; test: cells; details: Homo sapiens
[26] = molecular target: T1, Tyrosine-protein kinase BTK; test: Induction of BTK degradation in human MINO cells at 1000 nM incubated for 24 hrs by Western blot; type: cell-based
[27] = Cmax in ICR mouse at 100 mg/kg, po measured upto 48 hrs by LC/MS analysis; type: ADME, organism-based; parameters: dose 100 mg/kg, time < 48 hrs, route po; details: in vivo
[28] = Tmax in ICR mouse at 100 mg/kg, po measured upto 48 hrs by LC/MS analysis; type: ADME, organism-based; details: in vivo
[29] = AUC (0 to t) in ICR mouse at 100 mg/kg, po measured upto 48 hrs by LC/MS analysis; type: ADME, organism-based; parameters: time < 48 hrs, dose 100 mg/kg, route po; details: in vivo
[30] = AUC (0 to infinity) in ICR mouse at 100 mg/kg, po measured upto 48 hrs by LC/MS analysis; type: ADME, organism-based; parameters: time < 48 hrs, dose 100 mg/kg, route po; details: in vivo
[31] = Half life in ICR mouse at 100 mg/kg, po measured upto 48 hrs by LC/MS analysis; type: ADME, organism-based; details: in vivo
[32] = tested on: OCI-Ly10; test: Antitumor activity against human OCILY10 cells xenografted in SCID mouse assessed as tumor growth inhibition at 10 mg/kg, po qd measured after 17 days relative to control; type: functional; parameters: scale not given: the % may be the effect or the level left; details: time 17 day

Compound: Nc1ncnc2c1c(-c1ccc(Oc3ccccc3)cc1)nn2[C@@H]1CCCN(C(=O)CCCC(=O)NCC#CCN2CCN(CC#Cc3ccc4c(c3)CN(C3CCC(=O)NC3=O)C4=O)CC2)C1 (stereo partly specified)
Activity [2]: Dde | pIC50 [4]: 8.05 | Activity [26]: > 50%

Compound: Nc1ncnc2c1c(-c1ccc(Oc3ccccc3)cc1)nn2[C@@H]1CCCN(C(=O)[C@H]2CCCC[C@H]2C(=O)N2CCN(CC#Cc3ccc4c(c3)CN(C3CCC(=O)NC3=O)C4=O)CC2)C1 (stereo partly specified)
half-life [1]: 120 min | Activity [2]: Dde | Tmax [3]: 30 min | pIC50 [4]: 8.05 | Cmax [5]: 0.029 µg/mL | AUCt/dose [7]: 6 ng·h/mL/mg | AUC(0-t) at 24 h [9]: 0.058 µg·h/mL

Compound: Nc1ncnc2c1c(-c1ccc(Oc3ccccc3)cc1)nn2[C@@H]1CCCN(C(=O)/C=C/C(=O)NCC#CCN2CCN(CC#Cc3ccc4c(c3)CN(C3CCC(=O)NC3=O)C4=O)CC2)C1 (stereo partly specified)
half-life [1]: 90 min | Activity [2]: Dde | Tmax [3]: 36 min | pIC50 [4]: 8.05 | Cmax [5]: 0.015 µg/mL | AUCt/dose [7]: 2 ng·h/mL/mg | AUC(0-t) at 24 h [9]: 0.02 µg·h/mL

Compound: Nc1ncnc2c1c(-c1ccc(Oc3ccccc3)cc1)nn2[C@@H]1CCCN(C(=O)[C@H]2CCCC[C@H]2C(=O)NCC#CCN2CCN(CC#Cc3ccc4c(c3)CN(C3CCC(=O)NC3=O)C4=O)CC2)C1 (stereo partly specified)
half-life [1]: 84 min | Cmax [27]: 0.052 µg/mL | Tmax [28]: 42 min | AUC(0-t) at 48 h [29]: 0.062 µg·h/mL | Activity [2]: Dde | Tmax [3]: 36 min | AUC(0-inf) [30]: 0.081 µg·h/mL | pIC50 [4]: 8.05 | Cmax [5]: 0.125 µg/mL | pIC50 [6]: < 4.70 | AUCt/dose [7]: 25 ng·h/mL/mg | half-life [31]: 60 min | pIC50 [8]: 6.10 | AUC(0-t) at 24 h [9]: 0.247 µg·h/mL

Compound: C=CC(=O)N1CCC[C@@H](n2nc(-c3ccc(Oc4ccccc4)cc3)c3c(N)ncnc32)C1 [IBRUTINIB]
Activity [32]: 50.7%

More lines, in order of rising pIC50 [4], values ahead:

Tmax [10]: 18 min | half-life [11]: 318 min | Cmax [12]: 0.02 µg/mL | pIC50 [13]: < 4.70 | AUC(0-inf) [14]: 0.055 µg·h/mL | AUC(0-t) at 24 h [15]: 0.0215 µg·h/mL | pIC50 [4]: 7.61 | Tmax [16]: 42 min | Activity [17]: 16.5% | half-life [18]: 474 min | Activity [19]: Dde | AUC(0-t) at 48 h [20]: 0.039 µg·h/mL | pIC50 [6]: 4.70 | Cmax [21]: 0.461 µg/mL | AUCt/dose [22]: 215 ng·h/mL/mg | pIC50 [23]: 6.10 | pIC50 [8]: 5.18 | pIC50 [24]: 7.40 | pIC50 [25]: 6.97
Compound: Nc1ncnc2c1c(-c1ccc(Oc3ccccc3)cc1)nn2[C@@H]1CCCN(C(=O)CC(=O)NCC#CCN2CCN(CC#Cc3ccc4c(c3)CN(C3CCC(=O)NC3=O)C4=O)CC2)C1 (stereo partly specified)

half-life [1]: 48 min | Activity [2]: Dde | Tmax [3]: 36 min | pIC50 [4]: 8.05 | Cmax [5]: 0.016 µg/mL | pIC50 [6]: < 4.70 | AUCt/dose [7]: 2 ng·h/mL/mg | pIC50 [8]: 5.71 | AUC(0-t) at 24 h [9]: 0.024 µg·h/mL
Compound: Nc1ncnc2c1c(-c1ccc(Oc3ccccc3)cc1)nn2[C@@H]1CCCN(C(=O)[C@H]2CC[C@H](C(=O)N3CCN(CC#Cc4ccc5c(c4)CN(C4CCC(=O)NC4=O)C5=O)CC3)CC2)C1 (stereo partly specified)

half-life [1]: 138 min | Activity [2]: Dde | Tmax [3]: 54 min | pIC50 [4]: 8.05 | Cmax [5]: 0.782 µg/mL | AUCt/dose [7]: 253 ng·h/mL/mg | AUC(0-t) at 24 h [9]: 2.53 µg·h/mL
Compound: Nc1ncnc2c1c(-c1ccc(Oc3ccccc3)cc1)nn2[C@@H]1CCCN(C(=O)C2(C(=O)N3CCN(CC#Cc4ccc5c(c4)CN(C4CCC(=O)NC4=O)C5=O)CC3)CC2)C1 (stereo partly specified)

Activity [2]: Dde | pIC50 [4]: 8.05
Compound: Nc1ncnc2c1c(-c1ccc(Oc3ccccc3)cc1)nn2[C@@H]1CCCN(C(=O)CCCCC(=O)NCC#CCN2CCN(CC#Cc3ccc4c(c3)CN(C3CCC(=O)NC3=O)C4=O)CC2)C1 (stereo partly specified)

Activity [2]: Dde | pIC50 [4]: 8.05 | pIC50 [6]: 5.30 | pIC50 [8]: 6.53
Compound: Nc1ncnc2c1c(-c1ccc(Oc3ccccc3)cc1)nn2[C@@H]1CCCN(C(=O)/C=C/C(=O)N2CCN(CC#Cc3ccc4c(c3)CN(C3CCC(=O)NC3=O)C4=O)CC2)C1 (stereo partly specified)

half-life [1]: 90 min | Activity [2]: Dde | Tmax [3]: 30 min | pIC50 [4]: 8.05 | Cmax [5]: 0.069 µg/mL | AUCt/dose [7]: 11 ng·h/mL/mg | AUC(0-t) at 24 h [9]: 0.112 µg·h/mL
Compound: Nc1ncnc2c1c(-c1ccc(Oc3ccccc3)cc1)nn2[C@@H]1CCCN(C(=O)[C@H]2CC[C@H](C(=O)NCC#CCN3CCN(CC#Cc4ccc5c(c4)CN(C4CCC(=O)NC4=O)C5=O)CC3)CC2)C1 (stereo partly specified)

half-life [1]: 102 min | Activity [2]: Dde | Tmax [3]: 18 min | pIC50 [4]: 8.05 | Cmax [5]: 0.077 µg/mL | AUCt/dose [7]: 15 ng·h/mL/mg | AUC(0-t) at 24 h [9]: 0.145 µg·h/mL
Compound: Nc1ncnc2c1c(-c1ccc(Oc3ccccc3)cc1)nn2[C@@H]1CCCN(C(=O)C2(C(=O)NCC#CCN3CCN(CC#Cc4ccc5c(c4)CN(C4CCC(=O)NC4=O)C5=O)CC3)CC2)C1 (stereo partly specified)

Tmax [10]: 30 min | half-life [11]: 156 min | Cmax [12]: 0.224 µg/mL | pIC50 [13]: 5.72 | AUC(0-inf) [14]: 0.404 µg·h/mL | AUC(0-t) at 24 h [15]: 0.288 µg·h/mL | pIC50 [4]: 8.20 | Tmax [16]: 42 min | Activity [17]: 37.2% | half-life [18]: 390 min | Activity [19]: Dde | AUC(0-t) at 48 h [20]: 0.374 µg·h/mL | pIC50 [6]: 4.94 | Cmax [21]: 0.084 µg/mL | AUCt/dose [22]: 29 ng·h/mL/mg | pIC50 [23]: 6.91 | pIC50 [8]: 6.08 | pIC50 [24]: 7.89 | pIC50 [25]: 7.79
Compound: Nc1ncnc2c1c(-c1ccc(Oc3ccccc3)cc1)nn2[C@@H]1CCCN(C(=O)CCC(=O)N2CCN(CC#Cc3ccc4c(c3)CN(C3CCC(=O)NC3=O)C4=O)CC2)C1 (stereo partly specified)
